Measured values taken from patent US20080107719A1, “Transdermal drug delivery system” (priority 2006, published 2008).
Values after ≈ are worked out from the molar mass of the structure shown. Like-named read-outs stand apart in the source and are kept apart here.

How the values were obtained:
[1] = Pka determination; type: physicochemical
[2] = Stability in aqueous (PH1 and 14) tested by 3% hydrogen peroxide; type: physicochemical
[3] = Solubility in various PH medium; type: physicochemical; settings: media of various pH, aqueous buffer
[4] = Hygroscopicity (moisture sorption); type: physicochemical
[5] = Solubility in water
[6] = Log P (Octanol/water)
[7] = Half life (t1/2) in acidic and basic PH conditions; type: physicochemical; settings: buffer
[8] = Solubility in PG; type: physicochemical; settings: organic solvent or mixture
[9] = system: rat; settings: in vivo; cited from earlier work
[10] = system: rat; settings: cited from earlier work

For `CC12CC3CC(C)(C1)CC(N)(C3)C2.Cl` [Memantine HCl], the pKa [1] was 10.5, the “Stability in aqueous (PH1 and 14) tested by 3% hydrogen peroxide” value ([2]; PH1 and 14, 3% hydrogen peroxide) was “Stable” and the “stability in both acidic and basic pH conditions” value ([2]; acidic and basic pH) was “high stability”. For the same compound, the solubility ([3]; in PH 2-8, read-out: Solubility in various PH medium) was over 1200 µg/mL, the Hygroscopicity [4] was “Slightly hygroscopic” and the moisture sorption ([4]; at 5-95% RH) was “(<1.1% moisture”. The “PH of 1% aqueous solution” value ([5]; 1% aqueous solution) was “(PH 5.5-6)”, the solubility at 24 hr ([5]; water) was 45000 µg/mL and the “Log P (Octanol/water)” value [6] was 3.28.

`Cc1cccc(C(C)c2c[nH]c(=S)[nH]2)c1C` (stereo not drawn) [AGN 203818] showed a pKa [1] of 11.3, a solubility ([3]; in PH1-11, read-out: Solubility (μg/ml) in various PH medium) of 19.3 to 27.5 µg/mL (≈ 83.1 to 118 µM) and a half-life ([7]; pH 1, PH1, read-out: t1/2 (days) PH1 (converted)) of 51 days. It also gave a half-life ([7]; pH 11, PH11, read-out: t1/2 (days) PH11 (converted)) of 57 days, a solubility [8] of over 5100 µg/mL and a solubility ([5]; water) of 24.5 µg/mL (≈ 105 µM). For the same compound, the logP ([6]; octanol/water) was 2.9 to 3.12.

For `CN1CCCC1=O` [N-methylpyrrolidone], the “LD50 (skin)” value [9] is given as 7 g/KG bodyweight.

For Polysorbate80, the “LD50 (Rat-Oral)” value [10] is listed as 34.5 ml/kg bodyweight.
